Each structure is given as a SMILES string.

The target of the test is T1, PLK4 (Homo sapiens, UniProt O00444).
T1 construct: expressed in transfected cells; host or cells: HEK293 T cells (ATCC CRL-3216)
T1 sequence (O00444 1-970): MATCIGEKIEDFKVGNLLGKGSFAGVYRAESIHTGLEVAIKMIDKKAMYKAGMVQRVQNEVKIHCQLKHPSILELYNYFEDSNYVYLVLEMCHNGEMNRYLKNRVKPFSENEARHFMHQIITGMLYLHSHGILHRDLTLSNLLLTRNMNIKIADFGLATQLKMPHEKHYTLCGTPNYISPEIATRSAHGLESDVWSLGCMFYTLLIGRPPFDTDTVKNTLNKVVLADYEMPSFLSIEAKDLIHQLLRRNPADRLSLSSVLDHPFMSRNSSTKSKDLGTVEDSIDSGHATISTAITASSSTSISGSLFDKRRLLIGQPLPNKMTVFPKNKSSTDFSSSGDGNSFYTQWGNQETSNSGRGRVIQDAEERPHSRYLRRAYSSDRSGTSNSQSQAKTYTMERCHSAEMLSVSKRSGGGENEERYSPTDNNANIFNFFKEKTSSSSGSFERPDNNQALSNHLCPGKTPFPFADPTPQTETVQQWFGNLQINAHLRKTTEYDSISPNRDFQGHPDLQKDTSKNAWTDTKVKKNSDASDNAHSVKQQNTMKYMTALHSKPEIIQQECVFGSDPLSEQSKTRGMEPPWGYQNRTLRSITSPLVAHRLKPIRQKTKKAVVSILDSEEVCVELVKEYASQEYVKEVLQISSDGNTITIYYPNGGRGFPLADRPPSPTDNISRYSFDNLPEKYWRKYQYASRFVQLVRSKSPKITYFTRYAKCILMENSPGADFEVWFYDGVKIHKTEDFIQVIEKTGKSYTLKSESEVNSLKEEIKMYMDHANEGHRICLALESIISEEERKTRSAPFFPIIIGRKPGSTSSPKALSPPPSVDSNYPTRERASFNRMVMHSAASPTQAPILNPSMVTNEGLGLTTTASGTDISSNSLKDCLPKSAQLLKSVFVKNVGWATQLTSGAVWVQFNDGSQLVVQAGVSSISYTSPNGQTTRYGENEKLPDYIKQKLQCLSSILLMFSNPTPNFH
Description: PLK4 NanoBRET target engagement assay. The format is binding. As to conditions: HEK293 T cells transfected with PLK4 NanoLuc fusion vector; K-5 tracer; 2 hrs incubation. On the procedure: To determine the affinity of Compounds described herein in the PLK4 NanoBRET target engagement assay, HEK293 T cells (ATCC Product Number CRL-3216) are first transfected with the PLK4 NanoLuc fusion vector DNA and Transfection carrier DNA using the Fugene HD Transfection reagent in Opti-MEM No Phenol Red buffer. After an overnight incubation in a 37° C./5% CO2 incubator, the transfected HEK293 T cells are trypsinized, counted, and resuspended in Opti-MEM No Phenol Red buffer at a concentration of 200000 cells/mL. White 96-well plates are then plated with 85 μL of cells (17000 cells/well) to which 5 μL of the 20×K-5 tracer solution diluted in tracer dilution buffer is added. Finally, 10 μL of the 10× compounds are added and the plates and then incubated in a 37° C./5% CO2 incubator for 2 hrs. After the incubation, a 50 uL 3× solution of the substrate/inhibitor mix is added to the cells. The plate is then transferred in the Envision plate reader where the Acceptor emission (610 nm) and the Donor emission (450 nm) are measured.
The IC50 of compounds is determined as follows: • 1. The ratio between the Acceptor emission (610 nm)/Donor emission (450 nm) is calculated. • 2. This ratio is then multiplied by 1000 to obtain the mBRET units (multiplying by 1000 is an arbitrary step that simply makes the data easier to interpret; it has no impact on the data set itself) • 3. The mBRET units are then used in Scigilian Analyze software (https://analyze.scigilian.io) to determine the IC50 value using a 4-parameter fit analysis.
A word on the IC50: it is the point on the concentration scale where inhibition reaches its midpoint. For the molecule `CNC(=O)CN(c1nc(Nc2cc(C)[nH]n2)c(OC)c(-c2cnn(C)c2)n1)c1ccc(S(C)(=O)=O)cc1F` [Compound 85], the IC50 is 9200 nM.
As for `COc1c(Nc2cc(C)[nH]n2)nc(N(C)c2ccc(S(=O)(=O)C(C)(C)C)cc2)nc1-c1cnn(C)c1` [Compound 86], the figure is 120 nM.
As for `COc1c(Nc2cc(C)[nH]n2)nc(N(C)c2ccc(S(=O)(=O)C(C)C)cc2)nc1-c1cnn(C)c1` [Compound 87], the figure is 160 nM; as for `COCCN(c1nc(Nc2cc(C)[nH]n2)c(OC)c(-c2cnn(C)c2)n1)c1ccc(S(C)(=O)=O)cc1F` [Compound 88], 290 nM; as for `COc1c(Nc2cc(C)[nH]n2)nc(-n2ccc3cc(S(C)(=O)=O)ccc32)nc1-c1cnn(C)c1` [Compound 89], 1700 nM.
As for `COC(=O)CN(c1nc(Nc2cc(C)[nH]n2)c(OC)c(-c2cnn(C)c2)n1)c1ccc(S(C)(=O)=O)cc1F` [Compound 90], the figure is 370 nM.
On to `COc1c(Nc2cc(C)[nH]n2)nc(N(CC(=O)O)c2ccc(S(C)(=O)=O)cc2F)nc1-c1cnn(C)c1` [Compound 91], for which the IC50 worked out at 5400 nM.
In turn, `Cc1cc(Nc2nc(N(C)c3c(F)cc(S(C)(=O)=O)cc3F)cc(-c3cnn(C)c3)c2C2CC2)n[nH]1` [Compound 92] registered an IC50 of 53 nM.
Molecule `Cc1cc(Nc2nc(N(C)c3ccc(S(C)(=O)=O)cc3F)cc(-c3cnn(C)c3)c2C2CC2)n[nH]1` [Compound 93] registered an IC50 of 78 nM.
As for `Cc1cc(Nc2nc(Sc3ccc(S(C)(=O)=O)cc3F)cc(-c3cnn(C)c3)c2C2CC2)n[nH]1` [Compound 94], the figure is 110 nM; as for `COc1c(Nc2cc(C)[nH]n2)nc(Sc2ccc(S(C)(=O)=O)cc2F)c(F)c1-c1cnn(C)c1` [Compound 95], 170 nM.
`COc1c(Nc2cc(C)[nH]n2)nc(Nc2ccc(S(C)(=O)=O)cc2C)c(C)c1-c1cnn(C)c1` [Compound 96] showed an IC50 of 670 nM.
Next, `COc1c(Nc2cc(C)[nH]n2)nc(Sc2ccc(S(C)(=O)=O)cc2F)c(N(C)C)c1-c1cnn(C)c1` [Compound 97]: 1200 nM.
`COc1c(Nc2cc(C)[nH]n2)nc(N(C)c2ccc(S(C)(=O)=O)cc2F)c(C#N)c1-c1cnn(C)c1` [Compound 98] displayed an IC50 of 2000 nM.
In the case of `COc1c(Nc2cc(C)[nH]n2)nc(N(C)c2ccc(S(C)(=O)=O)cc2F)c(C)c1-c1cnn(C)c1` [Compound 99], the IC50 amounted to 4800 nM.
`COc1c(Nc2cc(C)[nH]n2)nc(Sc2ccc(S(C)(=O)=O)cc2F)c(Cl)c1-c1cnn(C)c1` [Compound 100] came in with an IC50 of 240 nM.
As for `COc1c(Nc2cc(C)[nH]n2)nc(Sc2ccc(S(C)(=O)=O)cc2F)c(C#N)c1-c1cnn(C)c1` [Compound 101], the figure is 120 nM; as for `COc1c(Nc2cc(C)[nH]n2)nc(Sc2ccc(S(C)(=O)=O)cc2F)c(N)c1-c1cnn(C)c1` [Compound 102], 840 nM; as for `Cc1cc(Nc2nc(N(C)c3c(F)cc(S(C)(=O)=O)cc3F)nc(-c3c[nH]cn3)c2C2CC2)n[nH]1` [Compound 103], 9 nM.
Next, `Cc1cc(Nc2nc(N(C)c3c(F)cc(S(C)(=O)=O)cc3F)nc(-c3cnn(C)n3)c2C2CC2)n[nH]1` [Compound 104]: 15 nM; `Cc1cc(Nc2nc(N(C)c3ccc(S(C)(=O)=O)cc3F)nc(-n3cncn3)c2C2CC2)n[nH]1` [Compound 105]: 740 nM; `Cc1cc(Nc2nc(N(C)c3c(F)cc(S(C)(=O)=O)cc3F)nc(-c3cc[nH]n3)c2C2CC2)n[nH]1` [Compound 106]: 6 nM.
Next, `Cc1cn(-c2nc(N(C)c3ccc(S(C)(=O)=O)cc3F)nc(Nc3cc(C)[nH]n3)c2C2CC2)cn1` [Compound 107]: 120 nM; `Cc1cc(Nc2nc(N(C)c3ccc(S(C)(=O)=O)cc3F)nc(-c3cnn4cccnc34)c2C2CC2)n[nH]1` [Compound 108, 5-cyclopropyl-N^2-(2-fluoro-4-(methylsulfonyl)phenyl)-N^2-methyl-N^4-(5-methyl-1H-pyrazol-3-yl)-6-(pyrazolo[1,5-a]pyrimidin-3-yl)pyrimidine-2,4-diamine]: 16 nM.
The molecule `Cc1cc(Nc2nc(N(C)c3ccc(S(C)(=O)=O)cc3F)nc(-c3cnn(C)n3)c2C2CC2)n[nH]1` [Compound 109] returned an IC50 of 49 nM.
As for `Cc1cc(Nc2nc(N(C)c3ccc(S(C)(=O)=O)cc3F)nc(N3CCOc4ccncc43)c2C2CC2)n[nH]1` [Compound 110, 5-cyclopropyl-6-(2,3-dihydro-4H-pyrido[4,3-b][1,4]oxazin-4-yl)-N^2-(2-fluoro-4-(methylsulfonyl)phenyl)-N^2-methyl-N^4-(5-methyl-1H-pyrazol-3-yl)pyrimidine-2,4-diamine], the figure is 160 nM.
In turn, `Cc1cc(Nc2nc(N(C)c3ccc(S(C)(=O)=O)cc3F)nc(N3CCCC(S(C)(=O)=O)C3)c2C2CC2)n[nH]1` (stereo not shown) [Compound 111, 5-cyclopropyl-N^2-(2-fluoro-4-(methylsulfonyl)phenyl)-N^2-methyl-N^4-(5-methyl-1H-pyrazol-3-yl)-6-(3-(methylsulfonyl)piperidin-1-yl)pyrimidine-2,4-diamine] gave an IC50 of 43 nM.
As for `Cc1cnn(-c2nc(N(C)c3ccc(S(C)(=O)=O)cc3F)nc(Nc3cc(C)[nH]n3)c2C2CC2)c1` [Compound 112], the figure is 110 nM.
Next, `Cc1ccn(-c2nc(N(C)c3ccc(S(C)(=O)=O)cc3F)nc(Nc3cc(C)[nH]n3)c2C2CC2)n1` [Compound 113]: 150 nM; `Cc1cc(Nc2nc(N(C)c3c(F)cc(S(C)(=O)=O)c(C)c3F)nc(-c3cnn(C)c3)c2C2CC2)n[nH]1` [Compound 114]: 10 nM; `Cc1cc(Nc2nc(N(C)c3c(F)cc(S(C)(=O)=O)cc3F)nc(-c3cn(C)nc3C#N)c2C2CC2)n[nH]1` [Compound 115]: 22 nM.
Molecule `COc1c(Nc2cc(C)[nH]n2)nc(N(C)c2cc(Cl)c(S(C)(=O)=O)cc2F)nc1-c1cnn(C)c1` [Compound 116] had an IC50 of 68 nM.
Turning to `COc1c(Nc2cc(C)[nH]n2)nc(N(C)c2ccc(S(C)(=O)=O)c(Cl)c2F)nc1-c1cnn(C)c1` [Compound 117], 220 nM corresponded to half-maximal inhibition (IC50).
Next, `Cc1cc(Nc2nc(N(C)c3c(F)cc(S(C)(=O)=O)cc3Cl)nc(-c3cnn(C)c3)c2C2CC2)n[nH]1` [Compound 118]: > 5000 nM; `Cc1cc(Nc2nc(N(C)c3c(F)cc(S(C)(=O)=O)c(Cl)c3F)nc(-c3cnn(C)c3)c2C2CC2)n[nH]1` [Compound 120]: 19 nM; `Cc1cc(Nc2nc(N(C)c3c(F)cc(S(C)(=O)=O)cc3F)nc(-c3c[nH]nc3C)c2C2CC2)n[nH]1` [Compound 122]: 8 nM.
`Cc1cc(Nc2nc(N(C)c3c(F)cc(S(C)(=O)=O)cc3F)nc(-c3cn(C)c(C)n3)c2C2CC2)n[nH]1` [Compound 124] displayed an IC50 of 2 nM.
As for `Cc1cc(Nc2nc(N(C)c3cc(F)c(S(C)(=O)=O)cc3F)nc(-c3cn(C)cn3)c2C2CC2)n[nH]1` [Compound 125, 5-cyclopropyl-N^2-(2,5-difluoro-4-(methylsulfonyl)phenyl)-N^2-methyl-6-(1-methyl-1H-imidazol-4-yl)-N^4-(5-methyl-1H-pyrazol-3-yl)pyrimidine-2,4-diamine], the figure is 7 nM; as for `Cc1cc(Nc2nc(N(C)c3c(F)cc(S(C)(=O)=O)cc3F)nc(-c3cnn(C4CC4)c3)c2C2CC2)n[nH]1` [Compound 126], 5 nM.
As for `Cc1cc(Nc2nc(N(C)c3c(F)cc(S(C)(=O)=O)cc3F)nc(-c3cnn(CF)c3)c2C2CC2)n[nH]1` [Compound 127], the figure is 6 nM.

For the origin of these results see US20250177396A1, “POLO-LIKE KINASE 4 (PLK4) INHIBITORS, PHARMACEUTICAL COMPOSITIONS, METHODS OF PREPARATION AND USES THEREOF” (Repare Therapeutics Inc., priority 2022, published 2025).
